Experimental data: PMC11714206, “Massively Parallel Screening of Toll/Interleukin‐1 Receptor (TIR)‐Derived Peptides Reveals Multiple Toll‐Like Receptors (TLRs)‐Targeting Immunomodulatory Peptides” (Advanced Science, 2024)

Target: T1, MAL^TIR (Homo sapiens, UniProt P58753)
T1 construct: MAL (residues 79–221); 6xHis; made in house; host or cells: E. coli BL21 (DE3)
Test: T‐Surf phage library (P8 and P3) selection against MAL^TIR, four rounds, NGS read counts
Format: binding
Conditions: for Rank (after): P8_MAL: rank by count after grouping; for Rank (before): P8_MAL: rank by count before grouping; for P8_MAL Rank (after) / P8_MAL Rank (before): P8 library; for Population: P8_MAL pool: P8 T-Surf phage library, 4th round of selection against MAL TIR, share of NGS reads
How it was run: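 Read counts come from NGS of phage pools enriched over four selection rounds on the plate‐coated TIR domain (5 µg mL^−1). Each round: 1 h phage binding at room temperature after 0.2% BSA blocking, Tween washes, acid elution, amplification in E. coli TG1 with M13KO7 helper.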

[1] = selection against MAL TIR, rank by count after grouping
[2] = selection against MAL TIR, rank by count before grouping
[3] = selection against MAL, rank by count after grouping
[4] = selection against MAL, rank by count before grouping
[5] = 4R selection against MAL, rank after grouping
[6] = 4R selection against MAL, rank before grouping
[7] = selection against MAL, rank after grouping
[8] = selection against MAL, rank before grouping

T1 sequence (P58753 79-221): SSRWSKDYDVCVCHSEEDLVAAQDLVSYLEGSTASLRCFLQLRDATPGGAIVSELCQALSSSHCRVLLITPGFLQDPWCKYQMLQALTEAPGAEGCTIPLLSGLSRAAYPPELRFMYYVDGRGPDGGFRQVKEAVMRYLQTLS

WFYELLVSLIVRDTKV
Rank (after): 394 | Rank (before): 1150

WFYELLVSLLLRDTKV
P8_MAL Rank (after) [1]: 221 | P8_MAL Rank (before) [2]: 1149

WFYEPLLSMLLRATKV
P8_MAL Rank (after) [3]: 706 | P8_MAL Rank (before) [4]: 1296

WFYEPLVSLILRDTKL
P8_MAL Rank (after) [1]: 236 | P8_MAL Rank (before) [2]: 1293

WFYEPLVSQITRDTKV
P8_MAL Rank (after) [5]: 586 | P8_MAL Rank (before) [6]: 1294

WFYEPLVSVILPDTKV
P8_MAL Rank (after) [7]: 561 | P8_MAL Rank (before) [8]: 1292

WFYERFVSQIPRDTNL
P8_MAL Rank (after) [7]: 550 | P8_MAL Rank (before) [8]: 1151

WFYERLASLILRDTKV
Population: 0.0034%

WFYERLESLILRDTKV
Population: 0.00278%

WFYERLFSLILRATKV
Rank (after): 148 | Rank (before): 1160

WFYERLGSLMLRDTNV
P8_MAL Rank (after) [7]: 555 | P8_MAL Rank (before) [8]: 1247

WFYERLLNLILRDTKV
Rank (after): 96 | Rank (before): 1250

WFYERLLSLILRDTKV
Population: 0.00278%

WFYERLLSLVLRDTKV
Rank (after): 176 | Rank (before): 1248

WFYERLLSRILRDTKV
Rank (after): 119 | Rank (before): 1249

WFYERLLTVIDRDTEV
P8_MAL Rank (after) [7]: 500 | P8_MAL Rank (before) [8]: 1159

WFYERLVCLILRDIKV
Rank (after): 465 | Rank (before): 1171

WFYERLVCLLLRDSKV
Rank (after): 458 | Rank (before): 1279

WFYERLVGLILRDTKV
Population: 0.0034%

WFYERLVGLILRETEG
P8_MAL Rank (after) [5]: 660 | P8_MAL Rank (before) [6]: 1163

WFYERLVGLIMRDTKV
Rank (after): 129 | Rank (before): 1172

WFYERLVILILRDTKV
Population: 0.00278%

WFYERLVILVLRDTKG
P8_MAL Rank (after) [1]: 250 | P8_MAL Rank (before) [2]: 1179

WFYERLVKLVLRDTKV
Rank (after): 166 | Rank (before): 1244

WFYERLVNLILRDTIV
P8_MAL Rank (after) [5]: 668 | P8_MAL Rank (before) [6]: 1241

WFYERLVNLNLRDTKV
Rank (after): 140 | Rank (before): 1242

WFYERLVRLFLRDTKV
Rank (after): 446 | Rank (before): 1237

WFYERLVRLILRDNKV
P8_MAL Rank (after) [5]: 607 | P8_MAL Rank (before) [6]: 1280

WFYERLVRLILRDTKA
Rank (after): 174 | Rank (before): 1185

WFYERLVRLILRDTKV
Population: 0.00309%

WFYERLVRLILSDTKV
P8_MAL Rank (after) [7]: 549 | P8_MAL Rank (before) [8]: 1175

WFYERLVSHMLRDTKV
Rank (after): 179 | Rank (before): 1232

WFYERLVSLFLRDTKV
Population: 0.00371%

WFYERLVSLILPVTKV
P8_MAL Rank (after) [1]: 229 | P8_MAL Rank (before) [2]: 1264

WFYERLVSLILRATQV
Rank (after): 474 | Rank (before): 1228

WFYERLVSLILRDSKV
Population: 0.00309%

WFYERLVSLILRDTIV
Population: 0.00309%

WFYERLVSLILRDTKE
Population: 0.00309%

WFYERLVSLILRDTKM
Population: 0.00402%

WFYERLVSLILRDTKX
Population: 0.0034%

WFYERLVSLILRHTKL
Rank (after): 187 | Rank (before): 1155

WFYERLVSLILRIPK
Rank (after): 188 | Rank (before): 742

WFYERLVSLILRNTKV
Population: 0.00309%

WFYERLVSLILRNTRV
Rank (after): 118 | Rank (before): 1290

WFYERLVSLILRVTKI
P8_MAL Rank (after) [7]: 553 | P8_MAL Rank (before) [8]: 1199

WFYERLVSLILRVTKV
Population: 0.00309%

WFYERLVSLILRYTKE
P8_MAL Rank (after) [1]: 222 | P8_MAL Rank (before) [2]: 1197

WFYERLVSLILRYTKV
Population: 0.00309%

WFYERLVSLIMRATKV
Rank (after): 117 | Rank (before): 1222

WFYERLVSLIMRDNIV
P8_MAL Rank (after) [5]: 634 | P8_MAL Rank (before) [6]: 1183

WFYERLVSLIQRDTTV
P8_MAL Rank (after) [1]: 212 | P8_MAL Rank (before) [2]: 1278

WFYERLVSLIRRDIKV
P8_MAL Rank (after) [3]: 694 | P8_MAL Rank (before) [4]: 1219

WFYERLVSLIRRDTQV
Rank (after): 106 | Rank (before): 1220

WFYERLVSLLLRATKV
Rank (after): 170 | Rank (before): 1156

WFYERLVSLLLRDTKV
Population: 0.00309%
